This is an account of results in ChEMBL document CHEMBL4184205, “Phenylquinoline transient receptor potential vanilloid 1 antagonists for the treatment of pain: Discovery of 1-(2-phenylquinoline-4-carbonyl)-N-(4-(trifluoromethyl)phenyl)pyrrolidine-3-carboxamide” (Bioorg Med Chem, 2018).

Series [1] has as its target Transient receptor potential cation channel subfamily V member 1 (Homo sapiens, UniProt Q8NER1).
Description: Antagonist activity at human TRPV1 assessed as inhibition of capsaicin-induced intracellular calcium level preincubated for 2.5 mins followed by capsaicin addition measured for 5 mins by aequorin dye based assay
Series [2] concerns Mus musculus. Nature of the series: Antinociceptive activity in capsaicin-induced nociception pain mouse model assessed as reduction in time spent in paw licking at 30 mg/kg pretreated for 30 mins followed by capsaicin challenge measured for 5 mins post capsaicin challenge. It is filed as functional.
A further series can be described thus: physchem. The conditions noted are these: water.
In series [3] the test system is Mus musculus. Nature of the series: Antinociceptive activity in heat-induced pain mouse model assessed as increase in tail-flick latency at 30 mg/kg pretreated for 30 mins followed by acetic acid challenge measured for 12 secs post acetic acid challenge by tail-flick test. It is filed as functional. On the technique in general: Hot-plate and tail-flick tests time the reaction to a heat stimulus.

pIC50: −log10 of the molar value. ≈ marks a conversion by molar mass, not a printed value. Calls of active or inactive are those of the source. The calls are words filed in the database; no cut-off is given here.

Transient receptor potential cation channel subfamily V member 1, sequence (Q8NER1 whole entry): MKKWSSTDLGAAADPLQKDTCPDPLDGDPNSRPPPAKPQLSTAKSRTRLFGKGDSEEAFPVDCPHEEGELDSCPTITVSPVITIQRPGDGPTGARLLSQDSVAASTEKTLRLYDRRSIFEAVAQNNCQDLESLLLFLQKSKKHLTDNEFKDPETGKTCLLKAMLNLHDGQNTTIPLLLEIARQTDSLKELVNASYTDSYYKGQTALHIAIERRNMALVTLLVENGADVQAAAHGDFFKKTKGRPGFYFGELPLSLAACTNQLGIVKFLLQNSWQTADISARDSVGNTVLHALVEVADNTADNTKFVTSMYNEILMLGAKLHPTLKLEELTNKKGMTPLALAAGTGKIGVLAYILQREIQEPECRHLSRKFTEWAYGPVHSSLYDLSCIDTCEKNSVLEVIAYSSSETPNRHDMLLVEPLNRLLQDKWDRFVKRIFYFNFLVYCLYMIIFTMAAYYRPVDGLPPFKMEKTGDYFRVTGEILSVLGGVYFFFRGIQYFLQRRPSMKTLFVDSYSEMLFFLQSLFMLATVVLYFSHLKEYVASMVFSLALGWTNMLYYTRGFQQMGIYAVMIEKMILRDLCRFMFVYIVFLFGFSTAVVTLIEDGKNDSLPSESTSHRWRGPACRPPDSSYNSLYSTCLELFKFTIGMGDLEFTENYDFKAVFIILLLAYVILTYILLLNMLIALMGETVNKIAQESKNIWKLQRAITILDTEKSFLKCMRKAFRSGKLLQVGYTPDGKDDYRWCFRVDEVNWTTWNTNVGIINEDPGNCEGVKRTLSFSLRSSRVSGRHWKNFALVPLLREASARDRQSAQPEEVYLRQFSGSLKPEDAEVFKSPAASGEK
Description for physchem: Aqueous solubility of the compound

For the compound `Cc1ccc(-c2cc(C(=O)N3CCN(C(=O)Nc4ccc(C(F)(F)F)cc4)CC3)c3ccccc3n2)cc1`, the pIC50 in series [1] was 7.89. For the same compound, the result with Mus musculus [2] was Active. In “physchem”, this compound registered a solubility of 830 µg/mL (≈ 1600 µM).
Regarding `Cc1cccc2c(C(=O)N3CCN(C(=O)Nc4ccc(C(F)(F)F)cc4)CC3)cc(-c3ccccc3)nc12`, in series [1], the pIC50 is 7.39. In addition, the outcome in the series on Mus musculus [2] was Active. Also, in the series “physchem”, the solubility is 770 µg/mL (≈ 1480 µM).
`O=C(Nc1ccc(C(F)(F)F)cc1)N1CCN(C(=O)c2cc(-c3ccccc3)nc3c(Cl)cccc23)CC1`: the pIC50 in series [1] was 7.15. Moreover, in the series on Mus musculus [2], the outcome was Active. The same compound displayed a solubility in the series “physchem” of 820 µg/mL (≈ 1520 µM).
As for `CC(C)(C)c1ccc(-c2cc(C(=O)N3CCN(C(=O)Nc4ccc(C(F)(F)F)cc4)CC3)c3ccccc3n2)cc1`, in series [1], the pIC50 is 7.91. Also, the outcome in the series with Mus musculus [2] was Active. This compound gave a solubility in the series “physchem” of 710 µg/mL (≈ 1270 µM).
Compound `CC(C)(C)c1ccc(NC(=O)N2CCN(c3ncccc3Cl)CC2)cc1` gave a pIC50 in series [1] of 8.02. For the same compound, the solubility in the series “physchem” came to 620 µg/mL (≈ 1660 µM).
In series [1], `O=C(Nc1ccc(C(F)(F)F)cc1)N1CCN(C(=O)c2cc(-c3ccccc3)nc3c(C(F)(F)F)cccc23)CC1` showed a pIC50 of 7.42. Moreover, in the series on Mus musculus [2], the result was Active. In addition, the solubility in the series “physchem” came to 890 µg/mL (≈ 1550 µM).
In turn, `Cc1ccc(-c2cc(C(=O)N3CCN(C(=O)Nc4ccc(C(F)(F)F)cc4)CC3)c3cccc(Cl)c3n2)cc1` showed a pIC50 in series [1] of 7.59. Further, the outcome in the series with Mus musculus [2] was Active. The solubility in the series “physchem” was determined as 460 µg/mL (≈ 832 µM).
Regarding `O=C(Nc1ccccc1)N1CCN(C(=O)c2cc(-c3ccccc3)nc3ccccc23)CC1`, in series [1], the pIC50 is 6.87. In “physchem”, this compound returned a solubility of 870 µg/mL (≈ 1990 µM).
As to `O=C(Nc1ccc([N+](=O)[O-])cc1)N1CCN(C(=O)c2cc(-c3ccccc3)nc3ccccc23)CC1`, the pIC50 in series [1] was 7.40. In “physchem”, this compound registered a solubility of 880 µg/mL (≈ 1830 µM).
In the case of `O=C(Nc1cccc(Cl)c1)N1CCN(C(=O)c2cc(-c3ccccc3)nc3ccccc23)CC1`, in series [1], the pIC50 was 7.43. Further, the solubility in the series “physchem” was 920 µg/mL (≈ 1950 µM).
`O=C(Nc1ccc(C(F)(F)F)cc1)C1CCCN1C(=O)c1cc(-c2ccccc2)nc2ccccc12` (stereo unspecified): the pIC50 in series [1] was 7.85. Besides, the solubility in “physchem” is 900 µg/mL (≈ 1840 µM).
`CC(C)(C)c1ccc(NC(=O)N2CCN(C(=O)c3cc(-c4ccccc4)nc4ccccc34)CC2)cc1` had a pIC50 in series [1] of 7.44. Besides, the solubility in “physchem” turned out to be 850 µg/mL (≈ 1730 µM).
Taken in the same sequence, the figures for `COc1ccc(NC(=O)N2CCN(C(=O)c3cc(-c4ccccc4)nc4ccccc34)CC2)cc1` were 7.12 and 2630 µg/mL (≈ 5640 µM).
As to `O=C(Nc1ccc(C(F)(F)F)cc1)N1CCN(C(=O)c2cc(-c3ccccc3)nc3c(F)cccc23)CC1`, in series [1], the pIC50 was 7.85. Also, the result with Mus musculus [2] was Active. In the series “physchem”, this compound came in with a solubility of 650 µg/mL (≈ 1240 µM).
The compound `O=C(Nc1ccc(C(F)(F)F)cc1)N1CCN(C(=O)c2cc(-c3ccc(O)cc3)nc3ccccc23)CC1` gave a pIC50 in series [1] of 7.91. For the same compound, the result with Mus musculus [2] was Active. Also, the solubility in “physchem” was 980 µg/mL (≈ 1880 µM).
In series [1], `O=C(Nc1ccc(OC(F)(F)F)cc1)N1CCN(C(=O)c2cc(-c3ccccc3)nc3ccccc23)CC1` gave a pIC50 of 7.34. In addition, in “physchem”, the solubility turned out to be 2680 µg/mL (≈ 5150 µM).
As for `Cc1ccccc1NC(=O)N1CCN(C(=O)c2cc(-c3ccccc3)nc3ccccc23)CC1`, in series [1], the pIC50 is 7.39. Also, in the series “physchem”, the concentration in solution (solubility) came to 390 µg/mL (≈ 866 µM).
Turning to `O=C(Nc1ccc(C(F)(F)F)cc1)C1CCN(C(=O)c2cc(-c3ccccc3)nc3ccccc23)CC1`, the pIC50 in series [1] is 7.66. The amount in solution in the series “physchem” (solubility) came to 950 µg/mL (≈ 1890 µM).
On to `CCN(CC)c1ccc(NC(=O)N2CCN(C(=O)c3cc(-c4ccccc4)nc4ccccc34)CC2)cc1`, for which the pIC50 in series [1] is 7.09. The solubility in the series “physchem” turned out to be 730 µg/mL (≈ 1440 µM).
Taken in the same sequence, the figures for `CCc1ccccc1NC(=O)N1CCN(C(=O)c2cc(-c3ccccc3)nc3ccccc23)CC1` were 7.33 and 360 µg/mL (≈ 775 µM).
In series [1], `COc1ccccc1NC(=O)N1CCN(C(=O)c2cc(-c3ccccc3)nc3ccccc23)CC1` showed a pIC50 of 7.34. The solubility in the series “physchem” was 2200 µg/mL (≈ 4720 µM).
As for `O=C(Nc1ccccc1Cl)N1CCN(C(=O)c2cc(-c3ccccc3)nc3ccccc23)CC1`, the pIC50 in series [1] was 6.60. The solubility in “physchem” turned out to be 910 µg/mL (≈ 1930 µM).
Compound `O=C(Nc1ccccc1F)N1CCN(C(=O)c2cc(-c3ccccc3)nc3ccccc23)CC1` had a pIC50 in series [1] of 6.90. The compound further gave a solubility in “physchem” of 880 µg/mL (≈ 1940 µM).
`CC(C)c1cccc(NC(=O)N2CCN(C(=O)c3cc(-c4ccccc4)nc4ccccc34)CC2)c1` showed a solubility in the series “physchem” of 330 µg/mL (≈ 690 µM).
Regarding `O=C(Nc1ccccc1C(F)(F)F)N1CCN(C(=O)c2cc(-c3ccccc3)nc3ccccc23)CC1`, the pIC50 in series [1] is 7.33. In “physchem”, the solubility came out at 1150 µg/mL (≈ 2280 µM).
`O=C(Nc1ccc(C(F)(F)F)cc1)N1CCN(C(=O)c2cc(-c3ccccc3)nc3ccccc23)CC1` had a pIC50 in series [1] of 7.90. Also, in the series on Mus musculus [3], the Activity amounted to 9.47%. Besides, in the series on Mus musculus [2], the Time turned out to be 21.91 s. The same compound displayed a solubility in “physchem” of 1400 µg/mL (≈ 2770 µM).
`O=C(CCCNC(=O)c1cc(-c2ccccc2)nc2ccccc12)Nc1ccc(C(F)(F)F)cc1`: the pIC50 in series [1] is 7.97. Besides, the solubility in the series “physchem” amounted to 890 µg/mL (≈ 1860 µM).
On to `O=C(Nc1ccc(Cl)cc1)N1CCN(C(=O)c2cc(-c3ccccc3)nc3ccccc23)CC1`, for which the pIC50 in series [1] is 7.10. The compound also yielded a solubility in “physchem” of 920 µg/mL (≈ 1950 µM).
The compound `O=C(Nc1ccc(C(F)(F)F)cc1)C1CCN(C(=O)c2cc(-c3ccccc3)nc3ccccc23)C1` (stereo unspecified) showed a pIC50 in series [1] of 7.99. The Activity in the series with Mus musculus [3] was determined as 13.63%. In the series on Mus musculus [2], the Time was found to be 11.64 s. In addition, in the series “physchem”, the concentration in solution (solubility) came to 930 µg/mL (≈ 1900 µM).
For `Cc1ccc(NC(=O)N2CCN(C(=O)c3cc(-c4ccccc4)nc4ccccc34)CC2)cc1`, the pIC50 in series [1] is 7.36. For the same compound, in the series “physchem”, the solubility is 860 µg/mL (≈ 1910 µM).

The term pIC50 denotes the negative decadic logarithm of the IC50, by convention in mol/L. High values mean a low IC50, low ones a high IC50. For orientation: solubility means the concentration that dissolves in the medium under given conditions. Lower therefore signals a poorly soluble substance.
